Each block holds one molecule with its values, some of them ahead of it.
Columns and labels:
[1] = biological target: Tyrosine-protein kinase SYK (Homo sapiens) (UniProt P43405); assay: Inhibition of SYK (unknown origin) at 0.078 uM relative to control
[2] = biological target: T1, Protein kinase C zeta type (Homo sapiens) (UniProt Q05513); assay: Inhibition of PKC-zeta (unknown origin) at 0.078 uM relative to control
T1 sequence (whole entry): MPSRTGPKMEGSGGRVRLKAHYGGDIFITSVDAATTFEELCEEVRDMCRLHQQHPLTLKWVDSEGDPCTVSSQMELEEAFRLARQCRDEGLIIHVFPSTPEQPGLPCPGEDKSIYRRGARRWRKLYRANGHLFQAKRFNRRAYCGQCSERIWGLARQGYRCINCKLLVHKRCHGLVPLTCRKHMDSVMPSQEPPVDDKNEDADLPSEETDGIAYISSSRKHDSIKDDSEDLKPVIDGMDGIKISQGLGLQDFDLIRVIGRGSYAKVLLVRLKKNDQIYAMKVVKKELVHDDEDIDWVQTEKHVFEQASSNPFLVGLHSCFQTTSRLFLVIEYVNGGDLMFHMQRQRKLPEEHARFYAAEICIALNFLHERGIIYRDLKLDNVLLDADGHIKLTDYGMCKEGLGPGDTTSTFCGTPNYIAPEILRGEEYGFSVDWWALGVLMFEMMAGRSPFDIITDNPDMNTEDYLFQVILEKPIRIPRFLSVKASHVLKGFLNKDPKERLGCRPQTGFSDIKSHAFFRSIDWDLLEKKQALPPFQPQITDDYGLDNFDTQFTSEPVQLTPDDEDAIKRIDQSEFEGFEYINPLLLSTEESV

[3] = biological target: MAP/microtubule affinity-regulating kinase 4 (Homo sapiens) (UniProt Q96L34); assay: Inhibition of MARK4 (unknown origin) at 0.49 uM relative to control
[4] = biological target: Ephrin type-B receptor 1 (Homo sapiens) (UniProt P54762); assay: Inhibition of EPHB1 (unknown origin) at 0.49 uM relative to control
[5] = biological target: Tyrosine-protein kinase Srms (Homo sapiens) (UniProt Q9H3Y6); assay: Inhibition of SRM (SRMS) (unknown origin) at 0.49 uM relative to control
Homo sapiens [6] = species on record: Homo sapiens; assay: Inhibition of p70S6K (unknown origin) at 0.49 uM relative to control
[7] = biological target: Ephrin type-A receptor 2 (Homo sapiens) (UniProt P29317); assay: Inhibition of EPHA2 (unknown origin) at 0.49 uM relative to control
[8] = biological target: Casein kinase I isoform alpha (Homo sapiens) (UniProt P48729); assay: Inhibition of CSNK1A1 (unknown origin) at 0.49 uM relative to control
[9] = tested on: Tyrosine-protein kinase ABL1 (Homo sapiens), P00519 [H396P]; assay: Inhibition of Abl H396P mutant (unknown origin) at 0.49 uM relative to control
[10] = biological target: Death-associated protein kinase 3 (Homo sapiens) (UniProt O43293); assay: Inhibition of ZIPK (unknown origin) at 0.49 uM relative to control
[11] = tested on: Mast/stem cell growth factor receptor Kit (Homo sapiens), P10721 [T670I]; assay: Inhibition of KIT T670I mutant (unknown origin) at 0.49 uM relative to control
[12] = biological target: Tyrosine-protein kinase Blk (Homo sapiens) (UniProt P51451); assay: Inhibition of BLK (unknown origin) at 0.49 uM relative to control
[13] = biological target: Cyclin-dependent kinase 9 (Homo sapiens) (UniProt P50750); assay: Inhibition of CDK9 (unknown origin) at 0.49 uM relative to control
[14] = biological target: Discoidin domain-containing receptor 2 (Homo sapiens) (UniProt Q16832); assay: Inhibition of DDR2 (unknown origin) at 0.49 uM relative to control
[15] = biological target: MAP kinase-activated protein kinase 3 (Homo sapiens) (UniProt Q16644); assay: Inhibition of MAPKAPK3 (unknown origin) at 0.49 uM relative to control
[16] = biological target: Homeodomain-interacting protein kinase 2 (Homo sapiens) (UniProt Q9H2X6); assay: Inhibition of HIPK2 (unknown origin) at 0.49 uM relative to control
[17] = biological target: Ephrin type-A receptor 4 (Homo sapiens) (UniProt P54764); assay: Inhibition of EPHA4 (unknown origin) at 0.49 uM relative to control
[18] = biological target: Ephrin type-A receptor 4 (Homo sapiens) (UniProt P54764); assay: Inhibition of EPHA4 (unknown origin) at 0.45 uM relative to control
[19] = biological target: Tyrosine-protein kinase Fes/Fps (Homo sapiens) (UniProt P07332); assay: Inhibition of FES (unknown origin) at 0.45 uM relative to control
[20] = biological target: Serine/threonine-protein kinase PAK 3 (Homo sapiens) (UniProt O75914); assay: Inhibition of PAK3 (unknown origin) at 0.45 uM relative to control
[21] = biological target: SRSF protein kinase 3 (Homo sapiens) (UniProt Q9UPE1); assay: Inhibition of MSSK1 (unknown origin) at 0.45 uM relative to control
[22] = biological target: Serine/threonine-protein kinase 4 (Homo sapiens) (UniProt Q13043); assay: Inhibition of MST1 (unknown origin) at 0.45 uM relative to control
[23] = biological target: Tyrosine-protein kinase HCK (Homo sapiens) (UniProt P08631); assay: Inhibition of Hck (unknown origin) at 0.45 uM relative to control
[24] = biological target: Dual specificity protein kinase CLK2 (Homo sapiens) (UniProt P49760); assay: Inhibition of CLK2 (unknown origin) at 0.45 uM relative to control
[25] = biological target: Protein kinase C epsilon type (Homo sapiens) (UniProt Q02156); assay: Inhibition of PKC-epsilon (unknown origin) at 0.45 uM relative to control
[26] = tested on: Tyrosine-protein kinase ABL1 (Homo sapiens), P00519 [T315I]; assay: Inhibition of Abl T315I mutant (unknown origin) at 0.45 uM relative to control
[27] = tested on: Tyrosine-protein kinase ABL1 (Homo sapiens), P00519 [G250E]; assay: Inhibition of ABL1 G250E mutant (unknown origin) at 0.45 uM relative to control
[28] = biological target: Ribosomal protein S6 kinase alpha-6 (Homo sapiens) (UniProt Q9UK32); assay: Inhibition of RSK4 (unknown origin) at 0.45 uM relative to control
Homo sapiens [29] = species on record: Homo sapiens; assay: Inhibition of PKA (unknown origin) at 0.45 uM relative to control
[30] = biological target: Proto-oncogene tyrosine-protein kinase Src (Homo sapiens) (UniProt P12931); assay: Inhibition of SRC (unknown origin) at 0.45 uM relative to control
[31] = biological target: Serine/threonine-protein kinase PAK 2 (Homo sapiens) (UniProt Q13177); assay: Inhibition of PAK2 (unknown origin) at 0.45 uM relative to control
[32] = tested on: Tyrosine-protein kinase ABL1 (Homo sapiens), P00519 [Y253F]; assay: Inhibition of ABL1 Y253F mutant (unknown origin) at 0.45 uM relative to control
[33] = biological target: Tyrosine-protein kinase ITK/TSK (Homo sapiens) (UniProt Q08881); assay: Inhibition of ITK (unknown origin) at 0.45 uM relative to control

Ephrin type-A receptor 4 (Homo sapiens), sequence (P54764 whole entry): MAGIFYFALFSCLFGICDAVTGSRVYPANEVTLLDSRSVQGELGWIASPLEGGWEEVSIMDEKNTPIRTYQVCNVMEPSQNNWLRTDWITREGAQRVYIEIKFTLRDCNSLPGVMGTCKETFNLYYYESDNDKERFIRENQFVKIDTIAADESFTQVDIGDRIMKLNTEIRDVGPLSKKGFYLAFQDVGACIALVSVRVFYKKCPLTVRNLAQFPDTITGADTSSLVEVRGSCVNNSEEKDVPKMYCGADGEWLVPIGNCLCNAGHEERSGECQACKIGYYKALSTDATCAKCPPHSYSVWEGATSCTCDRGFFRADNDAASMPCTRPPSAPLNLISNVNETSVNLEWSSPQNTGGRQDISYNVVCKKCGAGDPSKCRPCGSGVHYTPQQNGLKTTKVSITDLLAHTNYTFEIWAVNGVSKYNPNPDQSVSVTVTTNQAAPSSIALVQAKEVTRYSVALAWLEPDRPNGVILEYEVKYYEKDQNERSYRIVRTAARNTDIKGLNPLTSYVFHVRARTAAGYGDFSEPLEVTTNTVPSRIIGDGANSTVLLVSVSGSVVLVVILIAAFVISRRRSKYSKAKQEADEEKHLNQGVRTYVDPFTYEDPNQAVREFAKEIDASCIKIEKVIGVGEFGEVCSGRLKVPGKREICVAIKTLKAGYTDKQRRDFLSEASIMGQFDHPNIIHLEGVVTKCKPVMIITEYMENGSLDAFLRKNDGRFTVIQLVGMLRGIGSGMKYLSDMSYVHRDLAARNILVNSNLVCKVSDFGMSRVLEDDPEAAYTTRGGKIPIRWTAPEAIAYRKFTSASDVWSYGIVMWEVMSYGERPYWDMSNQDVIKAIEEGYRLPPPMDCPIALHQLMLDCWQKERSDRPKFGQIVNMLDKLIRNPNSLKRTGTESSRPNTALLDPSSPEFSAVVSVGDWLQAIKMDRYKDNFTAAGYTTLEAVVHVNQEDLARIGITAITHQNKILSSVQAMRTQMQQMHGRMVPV
Ribosomal protein S6 kinase alpha-6 (Homo sapiens), sequence (Q9UK32 whole entry): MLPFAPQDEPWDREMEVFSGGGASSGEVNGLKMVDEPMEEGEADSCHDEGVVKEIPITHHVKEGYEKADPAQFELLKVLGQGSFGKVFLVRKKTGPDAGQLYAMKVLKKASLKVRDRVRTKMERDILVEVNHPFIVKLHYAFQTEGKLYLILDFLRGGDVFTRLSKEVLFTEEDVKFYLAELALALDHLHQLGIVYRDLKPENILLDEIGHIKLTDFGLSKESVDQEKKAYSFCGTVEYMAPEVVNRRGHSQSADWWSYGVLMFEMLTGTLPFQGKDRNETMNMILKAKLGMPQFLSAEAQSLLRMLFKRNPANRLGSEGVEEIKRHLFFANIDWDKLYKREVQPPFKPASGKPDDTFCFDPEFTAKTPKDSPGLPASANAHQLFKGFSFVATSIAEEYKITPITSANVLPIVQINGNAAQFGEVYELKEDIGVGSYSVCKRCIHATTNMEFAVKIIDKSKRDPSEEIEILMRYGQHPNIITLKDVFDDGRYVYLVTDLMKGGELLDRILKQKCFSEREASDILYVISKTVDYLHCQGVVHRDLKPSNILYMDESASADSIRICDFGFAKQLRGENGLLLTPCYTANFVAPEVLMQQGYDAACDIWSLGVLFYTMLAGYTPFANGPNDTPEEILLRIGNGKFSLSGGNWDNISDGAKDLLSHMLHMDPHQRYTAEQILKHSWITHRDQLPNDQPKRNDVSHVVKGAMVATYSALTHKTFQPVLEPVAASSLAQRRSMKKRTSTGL
Mast/stem cell growth factor receptor Kit (Homo sapiens), P10721 [T670I], sequence (P10721 whole entry T670I): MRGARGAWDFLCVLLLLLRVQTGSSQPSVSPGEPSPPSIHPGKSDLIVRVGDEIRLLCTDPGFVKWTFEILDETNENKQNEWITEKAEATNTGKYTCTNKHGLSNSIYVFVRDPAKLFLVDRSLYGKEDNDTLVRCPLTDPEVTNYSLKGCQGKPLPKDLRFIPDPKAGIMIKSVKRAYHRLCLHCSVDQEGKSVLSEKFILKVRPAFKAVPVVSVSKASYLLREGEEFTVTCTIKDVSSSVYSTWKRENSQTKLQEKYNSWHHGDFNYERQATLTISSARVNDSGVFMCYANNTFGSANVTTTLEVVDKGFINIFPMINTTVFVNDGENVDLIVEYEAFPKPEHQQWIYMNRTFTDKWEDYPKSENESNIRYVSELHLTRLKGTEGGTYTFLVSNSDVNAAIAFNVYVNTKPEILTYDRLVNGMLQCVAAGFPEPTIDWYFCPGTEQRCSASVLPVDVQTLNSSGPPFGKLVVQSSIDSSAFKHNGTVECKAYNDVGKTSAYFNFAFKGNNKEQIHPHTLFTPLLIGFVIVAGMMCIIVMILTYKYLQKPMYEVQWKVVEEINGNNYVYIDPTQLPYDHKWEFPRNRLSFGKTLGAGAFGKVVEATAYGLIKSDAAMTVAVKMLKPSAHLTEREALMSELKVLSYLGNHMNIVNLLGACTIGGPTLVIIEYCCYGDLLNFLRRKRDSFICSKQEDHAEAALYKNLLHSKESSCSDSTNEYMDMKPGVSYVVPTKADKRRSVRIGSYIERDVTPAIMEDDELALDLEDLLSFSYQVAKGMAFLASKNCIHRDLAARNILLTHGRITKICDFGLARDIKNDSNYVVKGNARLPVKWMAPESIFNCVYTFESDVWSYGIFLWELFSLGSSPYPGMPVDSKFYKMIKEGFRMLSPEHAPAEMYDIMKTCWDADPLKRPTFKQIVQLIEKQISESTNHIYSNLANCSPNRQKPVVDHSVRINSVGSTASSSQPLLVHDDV
Death-associated protein kinase 3 (Homo sapiens), sequence (O43293 whole entry, looked up): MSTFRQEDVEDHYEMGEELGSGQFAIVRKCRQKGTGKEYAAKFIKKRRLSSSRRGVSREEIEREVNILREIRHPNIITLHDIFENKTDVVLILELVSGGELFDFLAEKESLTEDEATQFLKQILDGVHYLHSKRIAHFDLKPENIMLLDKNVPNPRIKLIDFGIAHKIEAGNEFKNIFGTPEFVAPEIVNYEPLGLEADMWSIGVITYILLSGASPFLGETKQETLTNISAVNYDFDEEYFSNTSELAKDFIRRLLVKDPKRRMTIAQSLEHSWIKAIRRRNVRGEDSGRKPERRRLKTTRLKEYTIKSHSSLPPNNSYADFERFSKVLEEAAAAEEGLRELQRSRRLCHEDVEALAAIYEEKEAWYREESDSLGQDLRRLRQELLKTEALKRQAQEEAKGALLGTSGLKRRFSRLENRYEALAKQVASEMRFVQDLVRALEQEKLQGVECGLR
SRSF protein kinase 3 (Homo sapiens), sequence (Q9UPE1 whole entry): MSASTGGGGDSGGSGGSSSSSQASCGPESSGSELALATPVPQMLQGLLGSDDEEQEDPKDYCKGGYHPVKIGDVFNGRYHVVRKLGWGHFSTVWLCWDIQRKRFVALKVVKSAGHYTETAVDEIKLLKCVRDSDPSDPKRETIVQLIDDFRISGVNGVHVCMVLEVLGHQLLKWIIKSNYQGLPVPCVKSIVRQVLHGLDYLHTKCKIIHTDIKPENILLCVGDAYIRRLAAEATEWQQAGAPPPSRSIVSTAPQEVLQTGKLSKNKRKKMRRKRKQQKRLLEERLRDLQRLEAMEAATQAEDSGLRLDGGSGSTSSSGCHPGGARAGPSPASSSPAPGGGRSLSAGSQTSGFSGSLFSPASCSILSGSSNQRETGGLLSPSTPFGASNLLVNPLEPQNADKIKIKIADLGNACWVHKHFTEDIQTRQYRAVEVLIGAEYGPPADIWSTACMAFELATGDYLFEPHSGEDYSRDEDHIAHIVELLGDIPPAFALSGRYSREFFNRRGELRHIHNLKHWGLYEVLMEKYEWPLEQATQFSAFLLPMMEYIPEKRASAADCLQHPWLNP
Tyrosine-protein kinase HCK (Homo sapiens), sequence (P08631 2-526 limits assumed): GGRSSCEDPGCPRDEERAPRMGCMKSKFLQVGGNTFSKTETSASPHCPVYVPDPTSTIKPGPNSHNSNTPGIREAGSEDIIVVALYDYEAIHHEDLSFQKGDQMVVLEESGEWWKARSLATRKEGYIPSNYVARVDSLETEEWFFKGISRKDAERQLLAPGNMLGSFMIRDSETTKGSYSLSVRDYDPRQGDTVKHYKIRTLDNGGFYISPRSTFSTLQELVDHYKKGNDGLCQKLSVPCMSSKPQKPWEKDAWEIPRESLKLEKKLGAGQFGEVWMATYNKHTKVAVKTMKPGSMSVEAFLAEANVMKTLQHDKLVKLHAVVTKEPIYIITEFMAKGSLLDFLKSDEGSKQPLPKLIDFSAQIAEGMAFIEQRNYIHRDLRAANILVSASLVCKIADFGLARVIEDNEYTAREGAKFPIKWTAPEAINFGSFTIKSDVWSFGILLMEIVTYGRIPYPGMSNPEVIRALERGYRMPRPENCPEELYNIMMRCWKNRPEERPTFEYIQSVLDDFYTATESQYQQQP
Serine/threonine-protein kinase PAK 3 (Homo sapiens), sequence (O75914 whole entry, looked up): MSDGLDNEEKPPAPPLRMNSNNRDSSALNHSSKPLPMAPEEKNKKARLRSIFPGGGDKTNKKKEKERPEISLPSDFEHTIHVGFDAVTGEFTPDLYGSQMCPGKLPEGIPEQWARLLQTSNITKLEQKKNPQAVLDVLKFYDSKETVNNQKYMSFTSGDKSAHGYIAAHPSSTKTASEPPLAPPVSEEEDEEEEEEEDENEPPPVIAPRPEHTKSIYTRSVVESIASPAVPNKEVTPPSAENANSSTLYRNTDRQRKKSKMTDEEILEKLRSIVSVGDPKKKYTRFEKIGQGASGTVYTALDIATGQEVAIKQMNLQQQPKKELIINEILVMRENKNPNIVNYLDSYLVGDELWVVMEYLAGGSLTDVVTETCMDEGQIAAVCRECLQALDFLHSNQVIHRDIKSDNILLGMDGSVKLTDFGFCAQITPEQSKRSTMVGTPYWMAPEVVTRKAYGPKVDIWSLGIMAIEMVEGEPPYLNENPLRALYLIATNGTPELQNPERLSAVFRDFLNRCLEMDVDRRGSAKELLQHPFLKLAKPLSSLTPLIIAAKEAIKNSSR

inhibition [1]: 0%
inhibition [2]: 2.7%
SMILES: COC(=O)Nc1noc2cc(-c3c(-c4ccccn4)n[nH]c3C)ccc12

inhibition [3]: 8.7%
inhibition [4]: 1.3%
inhibition [5]: 2.3%
inhibition (Homo sapiens [6]): -5.3%
inhibition [7]: -0.3%
inhibition [8]: 1.7%
inhibition [9]: 36.7%
inhibition [11]: -1.7%
inhibition [12]: 1%
inhibition [13]: 2.3%
inhibition [14]: 2%
inhibition [15]: -7.3%
inhibition [16]: 2.7%
inhibition [17]: 2.3%
SMILES: Cc1[nH]nc(C2CC2)c1-c1ccc2c(NC(=O)C3CC3)noc2c1
inhibition [10]: 2.3%

inhibition [18]: 0.7%
inhibition [19]: -3.3%
inhibition [20]: 3.7%
inhibition [21]: 2%
inhibition [22]: 33.3%
inhibition [23]: 30.3%
inhibition [24]: 9%
inhibition [25]: 9%
inhibition [26]: 58.7%
inhibition [27]: 68%
inhibition [28]: 50.7%
inhibition (Homo sapiens [29]): 3%
inhibition [30]: 51.7%
inhibition [31]: -2.7%
inhibition [32]: 76%
inhibition [33]: 89%
SMILES: Cc1n[nH]c(C)c1-c1ccc2c(NC(=O)c3ccc(N4CCN(C)CC4)cc3)n[nH]c2c1

— ChEMBL document CHEMBL4052759, “Discovery of DS79182026: A potent orally active hepcidin production inhibitor” (Bioorg Med Chem Lett, 2017)
